In US20120231482A1, “METHOD, KIT OR DIAGNOSTIC FOR THE DETECTION OF REAGENTS WHICH INDUCE ALTERED CONTRACTILITY” (THE JOHNS HOPKINS UNIVERSITY, priority 2009, published 2012):

Molecular target: T1, myosin heavy chain and light chain 1 (Rattus norvegicus, UniProt P02563+P16409)
T1 construct: 1 μg of rat cardiac myofibrils treated with HNO donors or control compounds; tissue Pel Freez Biologicals; host or cells: myofibrils from frozen rat ventricles
Assay: Gel shift assay, reducing/non-reducing western blot of cardiac myofibrils
Assay type: biochemical
Settings: non-reducing; lost with 5 mM DTT
Protocol: FIG. 4. Validation and characterizations of HNO modifications. 1 μg of rat cardiac myofibrils treated with HNO donors or control compounds were separated under reducing or nonreducing conditions and western blots probed for candidate proteins tropomyosin, actin, myosin heavy chain, myosin light chain 1 (n=4). […] Silver stained gel analysis indicated a protein band with […] gel mobility that was lost with DTT.
Gel shift assay. 10 μg of rat myofibrils/treatment were diluted to 0.5 μg/μl in HEN including 0.1% (w/v) SDS and exposed to a treatment for 20 min at 37° C. Samples were diluted to 0.1 ug/ul in 1×LSD sample buffer, treated with 0, 5 or 100 mM DTT and separated by SDS PAGE. Proteins were silver stained or transferred to nitrocellulose and immunoblotted with primary antibodies for tropomyosin sarcomeric (CH1, Sigma-Aldrich Co., St. Louis, Mo., USA), actin (AC-40, Sigma-Aldrich Co., St. Louis, Mo., USA), myosin light chain 1 (MLM527, Abcam, Cambridge, Mass., USA) or myosin heavy chain (3-48, Abcam, Cambridge, Mass., USA). For some silver stained gel bands of interest in-gel digestion was done following the protocol outlined in Shevchenko et al.. Gel slices of interest were excised from the gels cut into 1 mm^3 pieces. Silver stained gel pieces were destained in 1:1(v/v) 30 mM Potassium ferricyanide and 100 mM Sodium thiosulfate and wash three times with ddH2O. […]

T1 sequence (P02563 whole entry): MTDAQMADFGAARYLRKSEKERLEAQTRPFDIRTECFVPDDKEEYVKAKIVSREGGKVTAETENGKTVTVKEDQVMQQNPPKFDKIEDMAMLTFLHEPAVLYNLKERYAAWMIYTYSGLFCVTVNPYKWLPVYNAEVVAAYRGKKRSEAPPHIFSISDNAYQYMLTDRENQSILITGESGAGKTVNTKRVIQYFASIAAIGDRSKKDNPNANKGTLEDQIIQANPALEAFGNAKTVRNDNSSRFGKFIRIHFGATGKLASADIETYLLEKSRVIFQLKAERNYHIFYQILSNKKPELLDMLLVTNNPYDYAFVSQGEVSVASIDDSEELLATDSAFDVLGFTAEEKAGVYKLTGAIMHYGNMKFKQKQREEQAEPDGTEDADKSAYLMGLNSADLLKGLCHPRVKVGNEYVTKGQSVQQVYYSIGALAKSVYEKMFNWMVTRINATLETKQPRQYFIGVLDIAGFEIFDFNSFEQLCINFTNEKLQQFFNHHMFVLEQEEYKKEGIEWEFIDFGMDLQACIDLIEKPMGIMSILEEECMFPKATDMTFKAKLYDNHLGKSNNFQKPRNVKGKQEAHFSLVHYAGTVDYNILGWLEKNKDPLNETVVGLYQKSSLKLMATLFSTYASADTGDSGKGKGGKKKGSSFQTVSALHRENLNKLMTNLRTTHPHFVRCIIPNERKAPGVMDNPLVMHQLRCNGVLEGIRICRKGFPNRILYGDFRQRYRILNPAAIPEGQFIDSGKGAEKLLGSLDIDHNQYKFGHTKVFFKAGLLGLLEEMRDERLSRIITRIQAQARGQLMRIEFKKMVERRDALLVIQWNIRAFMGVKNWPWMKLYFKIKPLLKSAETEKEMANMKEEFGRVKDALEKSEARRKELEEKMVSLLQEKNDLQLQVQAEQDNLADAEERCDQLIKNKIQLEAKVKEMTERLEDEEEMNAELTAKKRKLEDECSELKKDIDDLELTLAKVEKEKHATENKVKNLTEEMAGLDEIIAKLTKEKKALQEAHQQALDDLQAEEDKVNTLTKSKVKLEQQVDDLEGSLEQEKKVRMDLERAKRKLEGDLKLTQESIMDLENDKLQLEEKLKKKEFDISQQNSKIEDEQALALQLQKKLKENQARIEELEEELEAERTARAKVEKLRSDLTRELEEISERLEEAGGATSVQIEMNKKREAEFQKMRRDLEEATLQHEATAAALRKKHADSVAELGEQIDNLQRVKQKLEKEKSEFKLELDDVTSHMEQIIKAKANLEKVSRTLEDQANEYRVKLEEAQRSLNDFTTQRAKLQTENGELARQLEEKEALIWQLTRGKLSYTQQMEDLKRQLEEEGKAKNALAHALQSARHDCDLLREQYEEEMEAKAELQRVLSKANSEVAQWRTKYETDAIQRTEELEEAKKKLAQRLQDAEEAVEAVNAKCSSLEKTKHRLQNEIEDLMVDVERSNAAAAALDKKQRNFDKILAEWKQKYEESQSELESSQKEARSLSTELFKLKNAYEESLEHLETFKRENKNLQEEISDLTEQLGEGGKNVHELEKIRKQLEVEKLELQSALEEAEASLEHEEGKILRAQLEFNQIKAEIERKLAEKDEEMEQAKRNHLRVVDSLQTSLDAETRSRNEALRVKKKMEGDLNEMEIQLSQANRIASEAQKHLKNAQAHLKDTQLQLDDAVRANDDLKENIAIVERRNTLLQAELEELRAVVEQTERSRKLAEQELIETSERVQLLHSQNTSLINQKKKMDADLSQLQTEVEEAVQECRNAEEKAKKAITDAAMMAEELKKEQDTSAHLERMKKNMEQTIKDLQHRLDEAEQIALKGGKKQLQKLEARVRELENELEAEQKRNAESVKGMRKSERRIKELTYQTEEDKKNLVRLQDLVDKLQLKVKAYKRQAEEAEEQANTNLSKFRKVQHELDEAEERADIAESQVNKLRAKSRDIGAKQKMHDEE
T1 sequence (P16409 2-200 limits assumed): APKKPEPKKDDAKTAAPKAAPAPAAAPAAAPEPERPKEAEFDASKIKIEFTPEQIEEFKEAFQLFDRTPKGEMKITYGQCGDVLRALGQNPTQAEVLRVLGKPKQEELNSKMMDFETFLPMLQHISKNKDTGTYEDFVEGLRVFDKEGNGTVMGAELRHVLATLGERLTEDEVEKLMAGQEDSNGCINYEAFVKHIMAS
T1 sequence (P08733 2-166 partner limits assumed): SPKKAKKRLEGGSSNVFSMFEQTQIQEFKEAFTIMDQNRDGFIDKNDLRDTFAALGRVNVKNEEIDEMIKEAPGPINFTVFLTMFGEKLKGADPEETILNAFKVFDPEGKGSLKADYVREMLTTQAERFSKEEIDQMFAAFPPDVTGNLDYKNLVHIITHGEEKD

| SMILES | MLC1 homodimer population [kDa] |
| --- | --- |
| CC(=O)OC1(N=O)CCCCC1 [NCA, 1-nitrosocyclohexylacetate] | ~50 |
| [Na+].[Na+].[O-][N+]([O-])=NO [AS, Angeli's Salt] | ~50 |
